Laboratory results reported in patent publication US12279618B2, “Use of dihydroporphin derived from chlorophyll as plant growth regulator” (Anqing Better Bioengineering Co., Ltd, priority 2019, dated 2025).

Legend:
Format in all cases: in vivo
[1] = tested on: soybean seeds; assay: Soybean seed germination experiment (seed soaking method); conditions: 0.2 ppm sample solution
[2] = tested on: corn seeds; assay: Corn seed germination experiment (seed soaking method, NYT 2061.1-2011)
Text: Test Method: Ministerial Standard NYT 2061.1-2011, Seed Soaking Method
Test samples: crude chlorin, and dihydroporphin monomers including chlorin fG, chlorin e6, pheophorbide, pyropheophorbide, chlorin e4, purpurin-7, purpurin-18, chlorin p6, 15-formyl rhodochlorin, 15-oxymethyl rhodochlorin, 15-oxymethyl rhodochlorin lactone A, 15-hydroxymethyl rhodochlorin, and 15-hydroxymethyl rhodochlorin lactone B, and pure water and iron chlorin e6 (China Pesticide Registration Certificate Number: PD20190031) were used as blank and positive control.
10 mg of each sample was weighed and put into a 10 ml volumetric flask, dissolved with DMSO, and diluted to volume after being dissolved completely. 1 ml of each diluted monomer solution was put into a 50-1000 ml volumetric flask, added with water, blended and diluted to volume so as to prepare a solution with a concentration of 2 ppm, 0.2 ppm, or 0.02 ppm.
The method was substantially the same as that in Example 2, except that the test samples were monomer chlorin e6 and control monomer chlorin e6 iron (III), both at a concentration of 0.02 ppm and the test seeds were corn, soybean, rice and wheat seeds. The preparation method of the control monomer was conducted by referring to CN102273467B.

[3] = tested on: wheat seeds; assay: Wheat seed germination experiment (seed soaking method)
Procedure: (§1) Test Method: Ministerial Standard NYT 2061.1-2011, Seed Soaking Method 10 mg of each sample was weighed and put into a 10 ml volumetric flask, dissolved with DMSO, and diluted to volume after being dissolved completely. 1 ml of each diluted monomer solution was put into a 50-1000 ml volumetric flask, added with water, blended and diluted to volume so as to prepare a solution with a concentration of 2 ppm, 0.2 ppm, or 0.02 ppm. The method was substantially the same as that in Example 2 except that wheat seeds were used as the crop seeds. The method was substantially the same as that in Example 2, except that the test samples were monomer chlorin e6 and control monomer chlorin e6 iron (III), both at a concentration of 0.02 ppm and the test seeds were corn, soybean, rice and wheat seeds. The preparation method of the control monomer was conducted by referring to CN102273467B.

[4] = tested on: rice seeds; assay: Rice seed germination experiment (seed soaking method)
Procedure: as §1, with “that rice” for “that wheat”

[5] = tested on: soybean seeds; assay: Soybean seed germination experiment (seed soaking method)
Procedure: Test Method: Ministerial Standard NYT 2061.1-2011, Seed Soaking Method 10 mg of each sample was weighed and put into a 10 ml volumetric flask, dissolved with DMSO, and diluted to volume after being dissolved completely. 1 ml of each diluted monomer solution was put into a 50-1000 ml volumetric flask, added with water, blended and diluted to volume so as to prepare a solution with a concentration of 2 ppm, 0.2 ppm, or 0.02 ppm. The method was substantially the same as that in Example 1 except that soybean seeds were used as the crop seeds, and the samples were crude chlorin, pyropheophorbide, chlorin f, chlorin e6, chlorin e4, purpurin-18, 15-oxymethyl rhodochlorin lactone, and 15-hydroxymethyl rhodochlorin lactone. The method was substantially the same as that in Example 2, except that the test samples were monomer chlorin e6 and control monomer chlorin e6 iron (III), both at a concentration of 0.02 ppm and the test seeds were corn, soybean, rice and wheat seeds. The preparation method of the control monomer was conducted by referring to CN102273467B.

[6] = 0.02 ppm sample solution, seed soaking
[7] = 0.2 ppm sample solution, seed soaking
[8] = 2 ppm sample solution, seed soaking
[9] = soybean seeds, 0.02 ppm sample solution
[10] = soybean seeds, 0.2 ppm sample solution
[11] = soybean seeds, 2 ppm sample solution
[12] = comparison of the monomers, 0.02 ppm
[13] = comparison of the monomers, soy bean seeds, 0.02 ppm
[14] = comparison of the monomers, 0.02 ppm, listed as chlorin e6

Molecule: iron chlorin e6 [reference compound]
- Germination rate % [1]: most ideal germination effect
- Germination rate % [2, 6]: 53%
- Germination rate % [2, 7]: 57%
- Germination rate % [2, 8]: 64%
- Germination rate % ([3]; 0.02 ppm sample solution): 90%
- Germination rate % ([3]; 0.2 ppm sample solution): 88%
- Germination rate % ([3]; 2 ppm sample solution): 86%
- Germination rate % ([4]; 0.02 ppm sample solution): 78%
- Germination rate % ([4]; 0.02 ppm sample solution, listed as iron chlorin e6): best germination effect
- Germination rate % ([4]; 0.2 ppm sample solution): 76%
- Germination rate % ([4]; 2 ppm sample solution): 74%
- Germination rate % ([4]; 2 ppm sample solution, listed as iron chlorin e6): best germination effect
- Germination rate % [5, 9]: 60%
- Germination rate % [5, 10]: 66%
- Germination rate % [5, 11]: 56%

Molecule: C=Cc1c(C)c2cc3nc(c4c5[nH]c(cc6nc(cc1[nH]2)C(C)=C6CC)c(C)c5C(=O)OC4=O)[C@@H](CCC(=O)O)[C@@H]3C [Purpurin-18, purpurin-18]
- Germination rate % [2, 6]: 55%
- Germination rate % [2, 7]: 58%
- Germination rate % [2, 8]: 53%
- Germination rate % ([3]; 0.02 ppm sample solution): 97%
- Germination rate % ([3]; 0.2 ppm sample solution): 97%
- Germination rate % ([3]; 2 ppm sample solution): 95%
- Germination rate % ([4]; 0.02 ppm sample solution): 77%
- Germination rate % ([4]; 0.2 ppm sample solution): 78%
- Germination rate % ([4]; 2 ppm sample solution): 76%
- Germination rate % [5, 9]: 66%
- Germination rate % [5, 10]: 65%
- Germination rate % [5, 11]: 67%

Molecule: C=Cc1c(C)c2cc3nc(c4c5[nH]c(cc6nc(cc1[nH]2)C(C)=C6CC)c(C)c5C(=O)[C@@H]4C(=O)OC)[C@@H](CCC(=O)O)[C@@H]3C [Pheophorbide, pheophorbide]
- Germination rate % [2, 6]: 57%
- Germination rate % [2, 7]: 55%
- Germination rate % [2, 8]: 56%

Molecule: purpurin-7
- Germination rate % [2, 6]: 56%
- Germination rate % [2, 7]: 57%
- Germination rate % [2, 8]: 53%

Molecule: 15-oxymethyl rhodochlorin
- Germination rate % [2, 6]: 56%
- Germination rate % [2, 7]: 52%
- Germination rate % [2, 8]: 52%

Molecule: chlorin e6 iron (III) [reference compound]
- Germination rate % [2, 12]: 46%
- Germination rate % [3, 12]: 92%
- Germination rate % [4, 12]: 58%
- Germination rate % [5, 13]: 60%

Molecule: C=Cc1c(C)c2cc3nc(c4c5[nH]c(cc6nc(cc1[nH]2)C(C)=C6CC)c(C)c5C(=O)OC4)C(CCC(=O)O)C3C (centres unmarked) [15-hydroxymethyl rhodochlorin lactone]
- Germination rate % [2, 6]: 60%
- Germination rate % [2, 7]: 54%
- Germination rate % [2, 8]: 48%
- Germination rate % ([3]; 0.02 ppm sample solution): 86%
- Germination rate % ([3]; 0.2 ppm sample solution): 96%
- Germination rate % ([3]; 2 ppm sample solution): 92%
- Germination rate % ([4]; 0.02 ppm sample solution): 72%
- Germination rate % ([4]; 0.2 ppm sample solution): 74%
- Germination rate % ([4]; 2 ppm sample solution): 68%
- Germination rate % [5, 10]: 60%

Molecule: C=Cc1c(C)c2cc3nc(c(C)c4[nH]c(cc5nc(cc1[nH]2)C(C)=C5CC)c(C)c4C(=O)O)[C@@H](CCC(=O)O)[C@@H]3C [Chlorin e4, chlorin e4]
- Germination rate % [2, 6]: 57%
- Germination rate % [2, 7]: 55%
- Germination rate % [2, 8]: 48%
- Germination rate % ([3]; 0.02 ppm sample solution): 93%
- Germination rate % ([3]; 0.2 ppm sample solution): 98%
- Germination rate % ([3]; 2 ppm sample solution): 97%
- Germination rate % ([4]; 0.02 ppm sample solution): 71%
- Germination rate % ([4]; 0.2 ppm sample solution): 76%
- Germination rate % ([4]; 2 ppm sample solution): 77%
- Germination rate % [5, 9]: 67%
- Germination rate % [5, 10]: 66%
- Germination rate % [5, 11]: 65%

Molecule: C=Cc1c(C)c2cc3nc(c4c5[nH]c(cc6nc(cc1[nH]2)C(C)=C6CC)c(C)c5C(=O)C4)[C@@H](CCC(=O)O)[C@@H]3C [Pyropheophorbide, pyropheophorbide]
- Germination rate % [2, 6]: 58%
- Germination rate % [2, 7]: 56%
- Germination rate % [2, 8]: 55%
- Germination rate % ([3]; 0.02 ppm sample solution): 94%
- Germination rate % ([3]; 0.2 ppm sample solution): 92%
- Germination rate % ([3]; 2 ppm sample solution): 93%
- Germination rate % ([4]; 0.02 ppm sample solution): 73%
- Germination rate % ([4]; 0.2 ppm sample solution): 74%
- Germination rate % ([4]; 2 ppm sample solution): 72%
- Germination rate % [5, 9]: 61%
- Germination rate % [5, 10]: 67%
- Germination rate % [5, 11]: 65%

Molecule: C=Cc1c(C)c2cc3nc(c(C(=O)O)c4[nH]c(cc5nc(cc1[nH]2)C(C)=C5CC)c(C)c4C(=O)O)[C@@H](CCC(=O)O)[C@@H]3C [Chlorin p6, chlorin p6]
- Germination rate % [2, 6]: 49%
- Germination rate % [2, 7]: 55%
- Germination rate % [2, 8]: 52%

Molecule: C=Cc1c(C)c2cc3nc(c(CC(=O)O)c4[nH]c(cc5nc(cc1[nH]2)C(C)=C5CC)c(C)c4C(=O)O)[C@@H](CCC(=O)O)[C@@H]3C [Chlorin e6, chlorin e6]
- Germination rate % [2, 6]: 58%
- Germination rate % [2, 7]: 42%
- Germination rate % [2, 8]: 46%
- Germination rate % [2, 12]: 58%
- Germination rate % [2, 14]: all better than those for the iron chelate monomer chlorin e6 iron (III)
- Germination rate % ([3]; 0.02 ppm sample solution): 94%
- Germination rate % ([3]; 0.02 ppm sample solution, listed as chlorin e6): best germination effect
- Germination rate % ([3]; 0.2 ppm sample solution): 96%
- Germination rate % ([3]; 2 ppm sample solution): 90%
- Germination rate % [3, 12]: 94%
- Germination rate % [3, 14]: all better than those for the iron chelate monomer chlorin e6 iron (III)
- Germination rate % ([4]; 0.02 ppm sample solution): 70%
- Germination rate % ([4]; 0.2 ppm sample solution): 74%
- Germination rate % ([4]; 2 ppm sample solution): 68%
- Germination rate % [4, 12]: 76%
- Germination rate % [4, 14]: all better than those for the iron chelate monomer chlorin e6 iron (III)
- Germination rate % [5, 13]: 66%
- Germination rate % ([5]; comparison of the monomers, soy bean seeds, 0.02 ppm, listed as chlorin e6): all better than those for the iron chelate monomer chlorin e6 iron (III)
- Germination rate % [5, 9]: 60%
- Germination rate % [5, 10]: 59%
- Germination rate % [5, 11]: 60%

Molecule: chlorin f
- Germination rate % [2, 6]: 55%
- Germination rate % [2, 7]: 66%
- Germination rate % [2, 8]: 58%
- Germination rate % ([3]; 0.02 ppm sample solution): 94%
- Germination rate % ([3]; 0.02 ppm sample solution, listed as chlorin f): best germination effect
- Germination rate % ([3]; 0.2 ppm sample solution): 88%
- Germination rate % ([3]; 2 ppm sample solution): 92%
- Germination rate % ([4]; 0.02 ppm sample solution): 76%
- Germination rate % ([4]; 0.2 ppm sample solution): 72%
- Germination rate % ([4]; 2 ppm sample solution): 66%
- Germination rate % [5, 9]: 66%
- Germination rate % [5, 10]: 54%
- Germination rate % [5, 11]: 62%
- Germination rate % ([5]; soybean seeds, 2 ppm sample solution, listed as chlorin f): better germination effects than the positive control

Molecule: C=Cc1c(C)c2cc3nc(c(C=O)c4[nH]c(cc5nc(cc1[nH]2)C(C)=C5CC)c(C)c4C(=O)O)[C@@H](CCC(=O)O)[C@@H]3C [15-formyl rhodochlorin]
- Germination rate % [2, 6]: 52%
- Germination rate % [2, 7]: 51%
- Germination rate % [2, 8]: 54%

Molecule: C=Cc1c(C)c2cc3nc(c(CO)c4[nH]c(cc5nc(cc1[nH]2)C(C)=C5CC)c(C)c4C(=O)O)C(CCC(=O)O)C3C (centres unmarked) [15-hydroxymethyl rhodochlorin]
- Germination rate % [2, 6]: 58%
- Germination rate % [2, 7]: 59%
- Germination rate % [2, 8]: 55%

Molecule: 15-oxymethyl rhodochlorin lactone
- Germination rate % [2, 6]: 54%
- Germination rate % [2, 7]: 66%
- Germination rate % [2, 8]: 58%
- Germination rate % ([3]; 0.2 ppm sample solution): 94%
- Germination rate % ([3]; 2 ppm sample solution): 82%
- Germination rate % ([4]; 0.02 ppm sample solution): 72%
- Germination rate % ([4]; 2 ppm sample solution): 70%
- Germination rate % [5, 9]: 58%
- Germination rate % [5, 10]: 58%
- Germination rate % [5, 11]: 60%
